The source of these data is patent US20240051952A1, “HMOX1 INDUCERS” (Mitobridge Inc., priority 2019, published 2024).

Assay [1] deals with HbSS Townes sickle mice. Briefly: Heme-induced vaso-occlusion (stasis) in HbSS Townes sickle mice. In kind it is in vivo, mouse. The following applies: 1 h after heme infusion. The text has this: Townes-SS mice were gavaged once daily with Vehicle or the compound of Example 17 for 8 days. After the last gavage dorsal skin-fold chambers were implanted on the mice and 20-22 flowing venules were selected and mapped in the subcutaneous skin using intravital microscopy. Mice were then infused via the tail vein with Panhematin (3.2 μmols heme/kg body weight). One hour after infusion each venule was re-examined for microvascular stasis (no flow) and data are expressed as % stasis. Stasis values are means+SD. One-Way ANOVA with Dunnett's Multiple comparison to Vehicle ****P<0.0001
(§1) Dosing Scheme of HMOX Inducers to HbSS Townes Sickle Mice
HbSS Townes sickle mice were oral gavaged once daily with Vehicle or the compound of Example 17 listed below for 8 days. To minimize experimental inconsistency, fresh formulation was prepared every day and vortexed prior to drawing test article into syringe for each dosing, and dosing was performed by the same individual throughout the day. The last-day dose was administered by oral gavage 4 hours prior to hemin infusion described below. • 1. Vehicle (0.5% w/v Tween 80 in 0.45% w/v methyl cellulose) • 2. the compound of Example 17 (10 mg/kg PO dosing) • 3. the compound of Example 17 (25 mg/kg PO dosing) • 4. the compound of Example 17 (50 mg/kg PO dosing)
Measurement of Vaso-Occlusion (Stasis)
Male and female sickle mice, approximately 12 weeks of age, were weighed before surgery. Animals were anesthetized with a mixture of ketamine (106 mg/kg) and xylazine (7.2 mg/kg) and dorsal skin-fold chambers (DSFCs) were surgically implanted. On the same day anesthetized mice were placed on a special intravital microscopy stage, and 20-22 flowing subcutaneous venules in the DSFC window were selected and mapped. After venule selection and mapping, hemin chloride (2.677 mM; Frontier Scientific), dissolved in sterile saline containing sodium carbonate (11.36 mM; Sigma-Aldrich) and D-sorbitol (9.59 mM; Sigma-Aldrich), was filtered (0.22 μm), diluted 1:10 in sterile saline (267.7 μM hemin, final) and infused into the tail veins of mice (0.012 ml/g, 3.2 μmols heme/kg body weight). All of the selected venules were re-examined at 1 h after hemin infusion, and the number of static (no flow) venules was counted and expressed as percent stasis. Four hours after hemin infusion, mice were euthanized in a CO2 atmosphere and the liver, spleen and kidneys were removed, flash frozen, and stored at −85° C.

In assay [2] the test system is HbSS Townes sickle mice. Briefly: F-cells in HbSS Townes sickle mice. In kind it is in vivo, mouse.
From the text: Blood smears were made using heparinized whole blood for F-cells staining. Stained F-cells and total red blood cells were counted on the blood smears in four fields; mean=77 red blood cells/field. F-cells are expressed as a percentage of total red blood cells. Values are means+SD. One-Way ANOVA with Dunnett's Multiple comparison to Vehicle **p≤0.01, ***p≤0.001, ****p≤0.0001
as §1
HbSS Townes sickle mice were oral gavaged once daily with Vehicle or the compound of Example 17 listed below for 8 days. To minimize experimental inconsistency, fresh formulation was prepared every day and vortexed prior to drawing test article into syringe for each dosing, and dosing was performed by the same individual throughout the day. The last-day dose was administered by oral gavage 4 hours prior to hemin infusion described below. • 1. […]
F-cells were stained on whole blood smears by the Kleihauer-Betke method using a fetal cell stain kit (Simmler) according to the manufacturer's instructions. F-cells and total erythrocytes were counted in 4 separate microscopic fields at 100× magnification for each mouse. The F-cells were expressed as a percentage of total erythrocytes (i.e., red blood cells). […]

[3] abbreviates: 10, 25, 50 mg/kg PO once daily 8 days.

“Also recorded” adds a separate entry of the source.

As for `Cn1c(Nc2nc3ccccc3o2)nc2cc(C(=O)NCCOCCO)ccc21` [Example 17, 2-(benzo[d]oxazol-2-ylamino)-N-(2-(2-hydroxyethoxy)ethyl)-1-methyl-1H-benzo[d]imidazole-5-carboxamide], the stasis in assay [1] (10 mg/kg PO once daily 8 days) was roughly 17%; in assay [1] (25 mg/kg PO once daily 8 days), roughly 12%; in assay [1] (50 mg/kg PO once daily 8 days), roughly 5%. Besides, the “microvascular stasis vs Vehicle” value in assay [1] (setting [3]) is reported as “significantly reduced; also recorded: dose responsively inhibit microvascular stasis”. Also, in assay [2] (setting [3]), the “percent F-cells vs vehicle” value is recorded as “significantly increased; also recorded: percentage of F-cells increase”. For the same compound, the “percent F-cells” value in assay [2] (all doses tested (10, 25, 50 mg/kg PO, 8 days), % of total red blood cells) is on record as 55-70%.
